# Measurements: patent US5621133A (priority 1995, dated 1997)
# Structures can show the parent of a compound that is named as a salt. Where two headings read alike, the source gives them in different places.
# Assays:
# dopamine D-1 receptor [1] = details: for Intrinsic Activity (adenylate cyclase assay): dopamine = 100, goldfish retina or rat striatum; for EC50: read-out: EC50 (agonist activity in adenylate cyclase assay), tissue from goldfish retina or rat striatum
# Protocol: In order to determine agonist activity, cell-free tissue homogenates are incubated in an ionic buffer solution containing ATP and the compound being evaluated. The tissue was obtained from either goldfish retina or rat striatum.
# dopamine D-1 receptor [2] = biological target: dopamine D-1 receptor (Rattus norvegicus, UniProt P18901); assay: biochemical; details: D-1 Ki, rat caudate, [125I]SCH-23982
# dopamine D-1 receptor (Rattus norvegicus, UniProt P18901), sequence (P18901 whole entry): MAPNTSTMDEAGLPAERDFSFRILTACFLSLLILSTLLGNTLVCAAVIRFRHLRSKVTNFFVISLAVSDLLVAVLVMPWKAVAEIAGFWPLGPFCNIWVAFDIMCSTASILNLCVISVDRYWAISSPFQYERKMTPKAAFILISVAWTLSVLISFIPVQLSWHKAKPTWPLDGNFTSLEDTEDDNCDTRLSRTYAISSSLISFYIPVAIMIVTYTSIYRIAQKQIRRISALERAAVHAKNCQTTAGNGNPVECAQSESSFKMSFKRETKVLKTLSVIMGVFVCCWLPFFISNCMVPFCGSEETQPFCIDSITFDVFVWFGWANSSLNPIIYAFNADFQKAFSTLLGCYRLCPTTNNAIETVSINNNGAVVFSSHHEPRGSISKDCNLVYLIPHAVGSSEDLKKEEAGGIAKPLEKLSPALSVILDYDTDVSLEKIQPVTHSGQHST
# Excerpt: The compounds compete with the radiolabeled ligand for occupancy of the receptors and the molar potency of each compound was quantified.
# The Ki values are inversely proportional to the affinity of the compound for the receptor.
# [3] = test system: striatal dopamine receptors; assay: Rotation behavior assay of in vivo activity (6-hydroxydopamine lesioned rat rotational model); details: for ED50 s.c. (rotation behavior): injected subcutaneously
# dopamine D-2 receptor = dopamine D-2 receptor (Rattus norvegicus, UniProt P61169); assay: biochemical; format: binding; details: rat caudate, [125I]-p-aminophenylethyl spiroperidol; read-out: D-2 Ki
# dopamine D-2 receptor, sequence (P61169 whole entry): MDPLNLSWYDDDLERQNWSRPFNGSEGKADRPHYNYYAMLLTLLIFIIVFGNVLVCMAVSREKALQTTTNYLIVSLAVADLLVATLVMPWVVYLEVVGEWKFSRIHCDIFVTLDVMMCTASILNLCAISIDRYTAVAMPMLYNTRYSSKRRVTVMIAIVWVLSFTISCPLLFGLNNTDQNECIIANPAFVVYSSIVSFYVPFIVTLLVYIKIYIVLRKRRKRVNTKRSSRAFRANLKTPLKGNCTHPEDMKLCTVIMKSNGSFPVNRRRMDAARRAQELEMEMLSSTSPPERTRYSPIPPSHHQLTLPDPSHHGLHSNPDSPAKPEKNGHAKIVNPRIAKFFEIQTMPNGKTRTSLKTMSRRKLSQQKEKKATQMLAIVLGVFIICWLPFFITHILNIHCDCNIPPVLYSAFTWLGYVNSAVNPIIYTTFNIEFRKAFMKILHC
# Protocol: Homogenized rat caudate was the source of the D-2 receptors. […] The molar affinity of the compound for the receptor binding site was calculated by the same method used for the D-1 receptor assay, assuming a competitive interaction between the compound and the radiolabeled ligand.
SMILES,Intrinsic Activity (adenylate cyclase assay) (dopamine D-1 receptor [1]),EC50 (dopamine D-1 receptor [1]) [nM],Ki (dopamine D-1 receptor [2]) [nM],ED50 s.c. (rotation behavior) [3] [µmol/kg],ED50 oral (rotation behavior) [3] [µmol/kg],Ki (dopamine D-2 receptor) [nM],EC50 (dopamine D-1 receptor [1]; Hydrobromide) [nM],mean rotations over 360 minutes ([3]; dose = 143 micromoles/kg p.o.),mean rotations over 20 hours ([3]; dose = 143 micromoles/kg p.o.)
CC(C)C[C@@H]1Cc2c(ccc(O)c2O)[C@H](CN)O1 (relative stereo) [Example 89],130,7,21,0.12,7,1400,,,
NCC1OC2(CCCCCC2)Cc2c1ccc(O)c2O (stereo not drawn) [Example 93],113,110,470,0.9,,> 10000,,,
Oc1ccc2c(c1O)CC1(CCCCCCCCC1)C1=C2CNCC1 [Example 240],70,130,750,> 3,,5200,,,
C=CCNC[C@H]1O[C@@H](c2ccccc2)Cc2c1ccc(O)c2O (stereo in doubt) [Example 126],94,46,160,0.16,28,6600,,,
CNCC1OC(CC2CCCC2)Cc2c1ccc(O)c2O (stereo not drawn) [Example 218],115,10,20,0.93,,410,,,
NC[C@@H]1O[C@H](CC2CCCCC2)Cc2c1ccc(O)c2O (relative stereo) [Example 88],133,12,130,0.61,32,1500,,,
NCC1=CC(C23CC4CC(CC(C4)C2)C3)Cc2c1ccc(O)c2O (stereo not drawn) [Example 231],85,90,300,> 3,,> 10000,,,
"Br.CN1CCC2=C(C1)c1ccc(O)c(O)c1CC2c1ccccc1 (stereo not drawn) [Example 210, 2-Methyl-5-phenyl-1,2,3,4,5,6-hexahydrobenzo[h]isoquinoline-7,8-diol Hydrobromide]",98,,47,0.005,1.6,1300,52,,
CNC[C@@H]1O[C@H](C2(C)CCCCC2)Cc2c1ccc(O)c2O (relative stereo) [Example 226],89,40,20,> 1,,1500,,,
"CC(C)(C)CC1Cc2c(ccc(O)c2O)C(CN)O1.Cl (stereo not drawn) [Example 214, 1-Aminomethyl-3-(2,2-dimethylpropyl)-3,4-dihydro-5,6-dihydroxy-1H-2-benzopyran Hydrochloride]",106,20,20,0.085,,5200,,,
NC[C@@H]1O[C@H](CC23CC4CC(CC(C4)C2)C3)Cc2c1ccc(O)c2O (relative stereo) [Example 90],128,22,76,0.6,8,900,,,
CNC[C@@H]1O[C@H](c2ccccc2)Cc2c1ccc(O)c2O [Example 138],157,51,3,0.15,,2200,,,
CNC[C@H]1O[C@@H](CC(C)(C)C)Cc2c1ccc(O)c2O (relative stereo) [Example 146],82,120,49,0.12,7,1400,,,
"CC(=O)Oc1ccc2c(c1OC(C)=O)CC(c1ccccc1)C=C2CNC(=O)[C@H](C)NC(=O)[C@H](C)N (stereo partly drawn) [Example 4, 5,6-Bis(acetoxy)-1-(alanyl-alanyl)aminomethyl-3-phenyl-3,4-dihydronaphthalene Hydrochloride]",,,,,,,,3329,
CSCC[C@H](N)C(=O)NCC1=CC(c2ccccc2)Cc2c1ccc(OC(C)=O)c2OC(C)=O (stereo partly drawn) [Example 14],,,,,,,,3653,
CN1CCC2=C(C1)c1ccc(O)c(O)c1CC2C(C)(C)C (stereo not drawn) [Example 244],,,240,> 3,,1200,,,
CC(=O)Oc1ccc2c(c1OC(C)=O)CC(c1ccccc1)C=C2CNC(=O)OC(C)OC(C)=O (stereo not drawn) [Example 6],,,,,,,,,2564
CC(=O)Oc1ccc2c(c1OC(C)=O)CC(c1ccccc1)C=C2CNC(=O)[C@H](C)N (stereo partly drawn) [Example 10],,,,,,,,1516,

SMILES,Intrinsic Activity (adenylate cyclase assay) (dopamine D-1 receptor [1]),EC50 (dopamine D-1 receptor [1]) [nM],Ki (dopamine D-1 receptor [2]) [nM],ED50 s.c. (rotation behavior) [3] [µmol/kg],ED50 oral (rotation behavior) [3] [µmol/kg],Ki (dopamine D-2 receptor) [nM],EC50 (dopamine D-1 receptor [1]; Hydrobromide) [nM],mean rotations over 360 minutes ([3]; dose = 143 micromoles/kg p.o.),mean rotations over 20 hours ([3]; dose = 143 micromoles/kg p.o.)
C[C@H](N)C(=O)N[C@@H](C)C(=O)NCC1=CC(c2ccccc2)Cc2c1ccc(OC(=O)c1ccccc1)c2OC(=O)c1ccccc1 (stereo partly drawn) [Example 15],,,,,,,,1760,
"Cl.NCC1=CC(c2ccccc2)Cc2c1ccc(OC(=O)c1ccccc1)c2OC(=O)c1ccccc1 (stereo not drawn) [Example 16, 1-Aminomethyl-5,6-bis(benzoyloxy)-3-phenyl-3,4-dihydronaphthalene Hydrochloride]",,,,,,,,4844,
CN1CCC2=C(C1)c1ccc(O)c(O)c1CC21CCCCCCC1 [Example 250],,,150,0.51,,1600,,,
CNC[C@@H]1O[C@H](CC23CC4CC(CC(C4)C2)C3)Cc2c1ccc(O)c2O (relative stereo) [Example 139],129,9.7,450,0.4,23,3200,,,
Oc1ccc2c(c1O)CC1(CCCC1)C1=C2CNCC1 [Example 204],110,48,160,1.1,18,1500,,,
CNC[C@@H]1O[C@H](C2(c3ccccc3)CCCCC2)Cc2c1ccc(O)c2O (relative stereo) [Example 225],76,130,90,> 3,,1700,,,
NCC1OC(CC2CCCC2)Cc2c1ccc(O)c2O (stereo not drawn) [Example 215],114,20,20,0.55,,800,,,
NC[C@H]1O[C@@H](COc2ccccc2)Cc2c1ccc(O)c2O (relative stereo) [Example 55],51,24,380,13.6,,1500,,,
CC(C)(C)C[C@H]1Cc2c(ccc(O)c2O)[C@@H](CN)O1 (relative stereo) [Example 104],110,54,37,0.13,5,> 10000,,,
CC(C)CC1Cc2c(ccc(O)c2O)C(CN)O1 (stereo not drawn) [Example 216],114,5,3,0.07,,3700,,,
NC[C@@H]1O[C@H](C2(c3ccccc3)CCCCC2)Cc2c1ccc(O)c2O (relative stereo) [Example 223],52,70,40,> 3,,2700,,,
"CNC[C@@H]1O[C@H](C(C)(C)C)Cc2c1ccc(O)c2O.Cl [Example 112, [1R,3S]3-t-butyl-5,6-dihydroxy-1-methylaminomethyl-3,4-dihydro-1H-2-benzopyran hydrochloride]",124,8,38,0.10,1.0,1500,,,
CN(C)C[C@@H]1O[C@H](C23CC4CC(CC(C4)C2)C3)Cc2c1ccc(O)c2O [Example 148],79,22,64,0.12,11,4600,,,
CN(C)C[C@@H]1O[C@H](c2ccccc2)Cc2c1ccc(O)c2O (relative stereo) [Example 227],94,370,20,0.045,,> 10000,,,
CN(C)C[C@@H]1O[C@H](C(C)(C)C)Cc2c1ccc(O)c2O [Example 147],89,66,400,0.05,,> 10000,,,
CNCC1OC(CC(C)C)Cc2c1ccc(O)c2O (stereo not drawn) [Example 219],,,4000,0.09,,1600,,,
NC[C@@H]1O[C@H](c2ccccc2)Cc2c1cc(Br)c(O)c2O (relative stereo) [Example 62],111,170,210,,,3700,,,
"CNC[C@@H]1S[C@H](c2ccccc2)Cc2c1ccc(O)c2O (relative stereo) [Example 187, [1,3-cis]1-(N-Methyl)aminomethyl-3-phenyl-3,4-dihydro-5,6-dihydroxy-1H-2-benzothiopyran Hydrochloride]",70,1200,2500,,,6400,,,
